Measured values published in ChEMBL document CHEMBL1201862, “PubChem BioAssay data set” (2004).
Active and inactive are the calls of the source.

Tests used:
[1] = biological target: T1, Oxysterols receptor LXR-beta (Homo sapiens, UniProt P55055); assay type: functional, cell-based;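 also: agonist activity at LXR measured by a cell-based luminescence readout across a dose range, run as a counterscreen for daf-12 agonists; HEK293 cells with Gal4-LXR fusion and GAL4-driven luciferase reporter; potency for activation of Gal4-LXR reporter so compounds are agonists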
T1 sequence (P55055 whole entry): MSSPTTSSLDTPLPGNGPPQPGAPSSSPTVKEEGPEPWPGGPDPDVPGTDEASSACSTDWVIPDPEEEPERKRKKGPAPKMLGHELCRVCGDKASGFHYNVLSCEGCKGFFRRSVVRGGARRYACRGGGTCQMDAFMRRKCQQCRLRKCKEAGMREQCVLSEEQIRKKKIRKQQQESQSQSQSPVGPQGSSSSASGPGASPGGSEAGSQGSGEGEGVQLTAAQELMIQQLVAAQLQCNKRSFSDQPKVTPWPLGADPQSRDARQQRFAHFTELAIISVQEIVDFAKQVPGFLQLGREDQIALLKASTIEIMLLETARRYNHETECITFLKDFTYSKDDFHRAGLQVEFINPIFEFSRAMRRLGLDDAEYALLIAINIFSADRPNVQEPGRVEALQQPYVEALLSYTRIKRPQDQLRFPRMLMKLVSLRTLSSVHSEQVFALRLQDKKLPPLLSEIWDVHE

[2] = biological target: T2, RNA-binding protein pos-1 (Caenorhabditis elegans, UniProt G5EF15); assay: inhibitors of POS-1/mex-3 RNA binding, dose response, biochemical, fluorescence polarization (AID 1964);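 also: purified POS-1 fused to maltose binding protein made in E. coli; potency of compounds blocking POS-1 binding to fluorescent RNA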
T2 sequence (G5EF15 whole entry): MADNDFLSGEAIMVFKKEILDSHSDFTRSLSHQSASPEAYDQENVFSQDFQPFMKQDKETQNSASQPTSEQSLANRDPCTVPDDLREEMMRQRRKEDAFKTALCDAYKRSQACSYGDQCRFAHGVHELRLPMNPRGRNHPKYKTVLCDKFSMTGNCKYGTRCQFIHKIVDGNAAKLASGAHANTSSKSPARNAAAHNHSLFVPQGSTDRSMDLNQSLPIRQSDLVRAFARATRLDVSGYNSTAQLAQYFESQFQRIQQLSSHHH

[3] = biological target: T3, Zinc finger protein mex-5 (Caenorhabditis elegans, UniProt Q9XUB2); assay: MEX-5/TCR-2 RNA interaction inhibitors, dose response, biochemical, C. elegans, fluorescence polarization (AID 1960)
T3 sequence (Q9XUB2 whole entry): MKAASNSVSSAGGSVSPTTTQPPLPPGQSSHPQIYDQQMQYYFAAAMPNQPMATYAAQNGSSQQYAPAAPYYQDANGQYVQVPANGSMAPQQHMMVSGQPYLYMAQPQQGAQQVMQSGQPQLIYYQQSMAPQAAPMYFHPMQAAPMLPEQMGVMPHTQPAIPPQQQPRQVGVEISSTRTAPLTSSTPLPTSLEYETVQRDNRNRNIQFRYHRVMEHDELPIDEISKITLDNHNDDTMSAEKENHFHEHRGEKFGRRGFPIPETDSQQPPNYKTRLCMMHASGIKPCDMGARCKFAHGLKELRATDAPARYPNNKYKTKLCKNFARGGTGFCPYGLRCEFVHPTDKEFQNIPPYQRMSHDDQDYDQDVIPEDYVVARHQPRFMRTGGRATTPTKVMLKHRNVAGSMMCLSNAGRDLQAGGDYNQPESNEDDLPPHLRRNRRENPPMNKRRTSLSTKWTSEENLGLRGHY

[4] = cells; assay type: functional
[5] = biological target: FAD-linked sulfhydryl oxidase ALR (Homo sapiens, UniProt P55789); assay: inhibitors of human ALR sulfhydryl oxidase, dose response, biochemical, H2O2 detection, luminescence, cherry-pick (AID 493248)
[6] = biological target: Genome polyprotein (dengue virus type 2, UniProt P29990); assay: Dengue-2 NS5 methyltransferase inhibitors, primary screen, biochemical, confirmation dose response (AID 588689); assay type: functional
[7] = cytotoxicity in HEK-293T cells, dose response, cytotoxicity control for TCR NF-kB inhibitor project, luminescence, T-cell screen hits (AID 489026); assay type: functional, cell-based;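 also: cells exposed to compound about 14 hours before the viability readout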
[8] = biological target: Heat shock protein HSP 90-alpha (Homo sapiens, UniProt P07900); assay type: functional, organism-based
[9] = cells; assay type: functional, cell-based
[10] = cells; assay type: functional, cell-based; remark: listed apart in the source
[11] = biological target: T4, Trace amine-associated receptor 1 (Homo sapiens, UniProt Q96RJ0); assay: Counterscreen for agonists of the human trace amine associated receptor 1 (hTAAR1): Fluorescence-based cell-based high throughput dose response assay to identify hTAAR1 agonist that also desensitize TAAR1 receptor response.; assay type: functional
T4 sequence (Q96RJ0 whole entry): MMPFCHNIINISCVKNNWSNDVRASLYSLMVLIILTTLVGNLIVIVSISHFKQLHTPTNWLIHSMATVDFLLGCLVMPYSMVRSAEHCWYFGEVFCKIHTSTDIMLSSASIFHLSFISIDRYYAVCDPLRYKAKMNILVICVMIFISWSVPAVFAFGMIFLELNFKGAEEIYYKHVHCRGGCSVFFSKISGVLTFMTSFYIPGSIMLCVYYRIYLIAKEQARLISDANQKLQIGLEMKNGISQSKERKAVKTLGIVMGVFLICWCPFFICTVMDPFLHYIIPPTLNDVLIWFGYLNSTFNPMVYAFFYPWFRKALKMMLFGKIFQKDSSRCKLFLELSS

[12] = biological target: T4, Trace amine-associated receptor 1; assay: Fluorescence-based cell-based high throughput dose response assay to identify agonists of the human trace amine associated receptor 1 (TAAR1).; assay type: functional
[13] = A549 cell cytotoxicity, dose response, cytotoxicity control, plate reader, cherry-pick, antagonist series (AID 743412); assay type: functional, cell-based
[14] = HEK293 cell cytotoxicity, dose response, cytotoxicity control, plate reader, cherry-picked samples (AID 743446); assay type: functional, cell-based
[15] = MC4R antagonists, dose response, counter-screen for LGR2 antagonist project, cell-based, plate reader, cherry pick (AID 743444); assay type: functional;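 also: transfected HEK 293 cells stimulated with alpha-MSH peptide; potency of inhibitors of the alpha-MSH evoked signal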
[16] = HepG2 cell cytotoxicity, dose response, cytotoxicity control, plate reader, cherry-pick, antagonist series (AID 743416); assay type: functional, cell-based
[17] = LGR2 antagonists, dose response, cell-based, HEK293, CRE-luciferase reporter, cherry pick, set 2 (AID 743343); assay type: functional;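 also: transfected cells were stimulated with diluted bursicon conditioned medium after compound addition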

Sequence of Genome polyprotein (P29990 2492-3391 limits assumed): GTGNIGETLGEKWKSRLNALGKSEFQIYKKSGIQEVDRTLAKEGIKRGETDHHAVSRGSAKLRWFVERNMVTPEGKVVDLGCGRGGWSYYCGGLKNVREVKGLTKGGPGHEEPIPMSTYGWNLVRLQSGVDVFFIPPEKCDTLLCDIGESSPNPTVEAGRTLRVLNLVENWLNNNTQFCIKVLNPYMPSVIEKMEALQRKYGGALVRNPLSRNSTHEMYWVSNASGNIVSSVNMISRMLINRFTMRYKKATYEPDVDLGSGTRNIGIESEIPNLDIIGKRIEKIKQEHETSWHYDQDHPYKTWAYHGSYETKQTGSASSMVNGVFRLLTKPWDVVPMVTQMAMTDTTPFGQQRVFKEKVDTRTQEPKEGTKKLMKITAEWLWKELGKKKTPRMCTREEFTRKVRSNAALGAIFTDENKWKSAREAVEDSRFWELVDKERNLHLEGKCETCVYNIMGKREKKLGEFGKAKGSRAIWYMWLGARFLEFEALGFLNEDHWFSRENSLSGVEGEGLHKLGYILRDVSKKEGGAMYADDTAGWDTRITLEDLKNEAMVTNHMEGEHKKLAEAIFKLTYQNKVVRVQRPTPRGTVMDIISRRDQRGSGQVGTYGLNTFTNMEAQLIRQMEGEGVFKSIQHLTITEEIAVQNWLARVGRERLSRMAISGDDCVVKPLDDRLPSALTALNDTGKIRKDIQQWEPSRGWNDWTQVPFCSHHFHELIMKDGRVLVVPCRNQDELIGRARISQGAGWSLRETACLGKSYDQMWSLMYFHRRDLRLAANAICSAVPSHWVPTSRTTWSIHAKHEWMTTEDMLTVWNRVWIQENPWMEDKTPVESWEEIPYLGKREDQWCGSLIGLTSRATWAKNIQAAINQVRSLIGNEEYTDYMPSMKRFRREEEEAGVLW
Sequence of FAD-linked sulfhydryl oxidase ALR (P55789 whole entry): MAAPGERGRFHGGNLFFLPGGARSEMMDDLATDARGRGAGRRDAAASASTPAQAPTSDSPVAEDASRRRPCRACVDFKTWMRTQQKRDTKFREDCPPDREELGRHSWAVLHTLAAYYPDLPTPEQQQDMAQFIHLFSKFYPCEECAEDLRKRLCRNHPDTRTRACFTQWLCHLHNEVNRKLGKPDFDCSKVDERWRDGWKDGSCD

Compound: CCN1C(=O)/C(=C/Nc2ccccc2)SC1=S
- EC50 [1]: > 67.5 µM (inactive)

Compound: Cc1ccc(Sc2ccc(C=C3C(=O)N(C)C(=O)N(C)C3=O)o2)cc1
- EC50 [2]: > 300 µM (not active)
- EC50 [3]: 25.5 µM (inconclusive)
- IC50 [4]: 21.4 µM (active)
- AC50 [5]: 250 nM (active)
- IC50 [6]: 14.5 µM (active)

Compound: C/C(=C\C(=O)c1sccc1Cl)N(C)C
- EC50 [1]: > 67.6 µM (inactive)

Compound: Nc1c2c(nc3sc4c(c13)CCCC4)CCCCC2
- EC50 [1]: > 67.6 µM (inactive)

Compound: CC1(C)Cc2nc3sc4c(=O)n(CC(=O)NCc5ccccc5)cnc4c3cc2CO1
- IC50 [7]: > 80 µM (inactive)

Compound: O=[N+]([O-])/C=C/c1c(Cl)cccc1Cl
- AC50 [8]: 1.12 µM (active)

Compound: COc1ccc(-c2nn(-c3ccccc3)cc2C(=O)N2CCN(S(=O)(=O)c3ccccc3[N+](=O)[O-])CC2)cc1
- AC50 [8]: 3.97 µM (active)

Compound: COc1cccc(C)c1NC1=NCCO1
- EC50 [9]: > 29.9 µM (inactive)
- IC50 [10]: > 29.9 µM (inactive)
- IC50 [11]: 4.12 µM (active)
- EC50 [12]: 0.734 µM (active)

Compound: CCSCC(C)(C)n1[nH]c2ccccc2c1=O
- EC50 [1]: > 67.6 µM (inactive)

Compound: COc1ccccc1NC(=O)N1CCCCN2[C@@H](CO)[C@H](c3ccc(-c4cccc(F)c4)cc3)[C@@H]2C1
- AC50 [13]: 18.6 µM (active)
- AC50 [14]: > 52 µM (inactive)
- AC50 [15]: 52.2 µM (active)
- AC50 [16]: 19 µM (active)
- AC50 [17]: 64.7 µM (active)

Compound: O=C(CNC(=O)c1ccccc1F)N/N=C\C=C\c1ccccc1
- EC50 [9]: > 29.9 µM (inactive)
- IC50 [10]: > 29.9 µM (inactive)
- IC50 [11]: 9.57 µM (active)
- EC50 [12]: > 29.9 µM (inactive)
